Data published in patent publication US20150105252A1, “SUBSTITUTED PYRAZOLES AS HERBICIDES” (E I DU PONT DE NEMOURS AND COMPANY, priority 2013, published 2015).

Tests used:
[1] = test system: barnyardgrass; test: Test C preemergence; format: in vivo, Echinochloa crus-galli; settings: preemergence; for Plant response rating, Barnyardgrass: 125 g ai/ha, scale 0 to 100, 0 = no effect, 100 = complete control
Method in brief: (§1)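 Postemergence values come from plants sprayed at the 1- to 4-leaf stage (2–18 cm) in peat moss–vermiculite medium; preemergence values from seeds treated in a loam–sand blend. Both evaluated visually against controls after 13–15 greenhouse days, scale 0–100.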

[2] = test system: galium; test: Test C preemergence; format: in vivo, Galium aparine; settings: preemergence; for Plant response rating, Galium: 125 g ai/ha, scale 0 to 100, 0 = no effect, 100 = complete control
Method in brief: as §1

[3] = test system: blackgrass; test: Test C preemergence; format: in vivo, Alopecurus myosuroides; settings: preemergence; for Plant response rating, Blackgrass: 125 g ai/ha, scale 0 to 100, 0 = no effect, 100 = complete control
Method in brief: as §1

[4] = test system: corn; test: Test A postemergence; format: in vivo, Zea mays
Method in brief: (§2)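 Scoring was visual, on a scale where 100 means complete control and 0 means no effect, comparing treated with untreated plants around 10 days post-application. Compounds in surfactant-containing non-phytotoxic solvent were sprayed onto soil preemergence or onto one- to two-leaf seedlings (2–10 cm) postemergence.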

[5] = test system: corn; test: Test C preemergence; format: in vivo, Zea mays; settings: preemergence; for Plant response rating, Corn: 125 g ai/ha, scale 0 to 100, 0 = no effect, 100 = complete control
Method in brief: as §1

[6] = test system: oilseed rape; test: Test C preemergence; format: in vivo, Brassica napus; settings: preemergence; for Plant response rating, Oilseed Rape: 125 g ai/ha, scale 0 to 100, 0 = no effect, 100 = complete control
Method in brief: as §1

[7] = test system: johnsongrass; test: Test C preemergence; format: in vivo, Sorghum halepense; settings: preemergence; for Plant response rating, Johnsongrass: 125 g ai/ha, scale 0 to 100, 0 = no effect, 100 = complete control
Method in brief: as §1

[8] = test system: velvetleaf; test: Test A postemergence; format: in vivo, Abutilon theophrasti
Method in brief: as §2

[9] = test system: barnyardgrass; test: Test A preemergence; format: in vivo, Echinochloa crus-galli; settings: preemergence; for Barnyardgrass plant response rating (0 to 100 scale, 0 is no effect, 100 is complete control): 125 g ai/ha, visual injury approx. 10 days after treatment; for Barnyardgrass plant response rating: 500 g ai/ha, visual injury after approx. 10 days, 0 to 100 scale (0 no effect, 100 complete control)
Method in brief: as §2

[10] = test system: pigweed; test: Test C preemergence; format: in vivo, Amaranthus retroflexus; settings: preemergence; for Plant response rating, Pigweed: 125 g ai/ha, scale 0 to 100, 0 = no effect, 100 = complete control
Method in brief: as §1

[11] = test system: soybean; test: Test C preemergence; format: in vivo, Glycine max; settings: preemergence; for Plant response rating, Soybean: 125 g ai/ha, scale 0 to 100, 0 = no effect, 100 = complete control
Method in brief: as §1

[12] = test system: wheat; test: Test C preemergence; format: in vivo, Triticum aestivum; settings: preemergence; for Plant response rating, Wheat: 125 g ai/ha, scale 0 to 100, 0 = no effect, 100 = complete control
Method in brief: as §1

[13] = test system: velvetleaf; test: Test C preemergence; format: in vivo, Abutilon theophrasti; settings: preemergence; for Plant response rating, Velvetleaf: 125 g ai/ha, scale 0 to 100, 0 = no effect, 100 = complete control
Method in brief: as §1

[14] = test system: ryegrass, Italian; test: Test C preemergence; format: in vivo, Lolium multiflorum; settings: preemergence; for Plant response rating, Ryegrass, Italian: 125 g ai/ha, scale 0 to 100, 0 = no effect, 100 = complete control
Method in brief: as §1

[15] = test system: crabgrass, large; test: Test A postemergence; format: in vivo, Digitaria sanguinalis
Method in brief: as §2

[16] = 31 g ai/ha, visual rating, scale 0 to 100 (0 no effect, 100 complete control), 13 to 15 days
[17] = 62 g ai/ha, scale 0 to 100 (0 no effect, 100 complete control), 13 to 15 days
[18] = 250 g ai/ha, scale 0 to 100, 0 is no effect, 100 is complete control
[19] = Postemergence, 500 g ai/ha, 0 to 100 scale (0 no effect, 100 complete control)
[20] = postemergence, 125 g ai/ha, about 10 days, visual rating on 0 to 100 scale (0 no effect, 100 complete control)
[21] = Postemergence, 125 g ai/ha, 0 to 100 scale, 0 no effect, 100 complete control

## CCNC(=O)c1cc(CCCl)n(Cc2ccnc(C(F)(F)F)c2)n1 [Compound 179]
[1]; [16]
  Barnyardgrass plant response rating: 60
[1]; [17]
  Barnyardgrass plant response rating: 98
[1]; 13 to 15 days
  Plant response rating, Barnyardgrass: 100
[1]; [18]
  Barnyardgrass plant response rating: 100
[2]; [16]
  Galium plant response rating: 98
[2]; [17]
  Galium plant response rating: 100
[2]; 13 to 15 days
  Plant response rating, Galium: 100
[2]; [18]
  Galium plant response rating: 100
[3]; [16]
  Blackgrass plant response rating: 5
[3]; [17]
  Blackgrass plant response rating: 40
[3]; 13 to 15 days
  Plant response rating, Blackgrass: 90
[3]; [18]
  Blackgrass plant response rating: 95
[4]; [19]
  Corn plant response rating: 90
[4]; [20]
  Corn plant response rating: 50
[5]; [16]
  Corn plant response rating: 5
[5]; [17]
  Corn plant response rating: 10
[5]; 13 to 15 days
  Plant response rating, Corn: 30
[5]; [18]
  Corn plant response rating: 95
[6]; [16]
  Oilseed Rape plant response rating: 60
[6]; [17]
  Oilseed Rape plant response rating: 85
[6]; 13 to 15 days
  Plant response rating, Oilseed Rape: 100
[6]; [18]
  Oilseed Rape plant response rating: 100
[7]; [16]
  Johnsongrass plant response rating: 10
[7]; [17]
  Johnsongrass plant response rating: 10
[7]; 13 to 15 days
  Plant response rating, Johnsongrass: 75
[7]; [18]
  Johnsongrass plant response rating: 98
[8]; [19]
  Velvetleaf plant response rating: 100
[8]; [20]
  Velvetleaf plant response rating: 70
[9]
  Barnyardgrass plant response rating (0 to 100 scale, 0 is no effect, 100 is complete control): 100
  Barnyardgrass plant response rating: 100
[10]; [16]
  Pigweed plant response rating: 100
[10]; [17]
  Pigweed plant response rating: 100
[10]; 13 to 15 days
  Plant response rating, Pigweed: 100
[10]; [18]
  Pigweed plant response rating: 98
[11]; [16]
  Soybean plant response rating: 35
[11]; [17]
  Soybean plant response rating: 65
[11]; 13 to 15 days
  Plant response rating, Soybean: 85
[11]; [18]
  Soybean plant response rating: 98
[12]; [16]
  Wheat plant response rating: 0
[12]; [17]
  Wheat plant response rating: 0
[12]; 13 to 15 days
  Plant response rating, Wheat: 80
[12]; [18]
  Wheat plant response rating: 85
[13]; [16]
  Velvetleaf plant response rating: 35
[13]; [17]
  Velvetleaf plant response rating: 80
[13]; 13 to 15 days
  Plant response rating, Velvetleaf: 100
[13]; [18]
  Velvetleaf plant response rating: 100
[14]; [16]
  Ryegrass, Italian plant response rating: 5
[14]; [17]
  Ryegrass, Italian plant response rating: 80
[14]; 13 to 15 days
  Plant response rating, Ryegrass, Italian: 90
[14]; [18]
  Ryegrass, Italian plant response rating: 90
[15]; [19]
  Crabgrass, Large plant response rating: 90
[15]; [20]
  Crabgrass, Large plant response rating: 90

## CCCc1cc(C(=O)NOCC)nn1Cc1ccnc(C(F)(F)F)c1 [Compound 185]
[1]; [16]
  Barnyardgrass plant response rating: 55
[1]; [17]
  Barnyardgrass plant response rating: 75
[1]; 13 to 15 days
  Plant response rating, Barnyardgrass: 98
[1]; [18]
  Barnyardgrass plant response rating: 100
[2]; [16]
  Galium plant response rating: 80
[2]; [17]
  Galium plant response rating: 100
[2]; 13 to 15 days
  Plant response rating, Galium: 95
[2]; [18]
  Galium plant response rating: 100
[3]; [16]
  Blackgrass plant response rating: 5
[3]; [17]
  Blackgrass plant response rating: 10
[3]; 13 to 15 days
  Plant response rating, Blackgrass: 90
[3]; [18]
  Blackgrass plant response rating: 80
[4]; [19]
  Corn plant response rating: 90
[4]; [20]
  Corn plant response rating: 0
[5]; [16]
  Corn plant response rating: 5
[5]; [17]
  Corn plant response rating: 25
[5]; 13 to 15 days
  Plant response rating, Corn: 45
[5]; [18]
  Corn plant response rating: 75
[6]; [16]
  Oilseed Rape plant response rating: 70
[6]; [17]
  Oilseed Rape plant response rating: 80
[6]; 13 to 15 days
  Plant response rating, Oilseed Rape: 85
[6]; [18]
  Oilseed Rape plant response rating: 100
[7]; [16]
  Johnsongrass plant response rating: 5
[7]; [17]
  Johnsongrass plant response rating: 10
[7]; 13 to 15 days
  Plant response rating, Johnsongrass: 20
[7]; [18]
  Johnsongrass plant response rating: 60
[8]; [21]
  Velvetleaf plant response rating: 10
[8]; [19]
  Velvetleaf plant response rating: 100
[9]
  Barnyardgrass plant response rating (0 to 100 scale, 0 is no effect, 100 is complete control): 80
  Barnyardgrass plant response rating: 100
[10]; [16]
  Pigweed plant response rating: 100
[10]; [17]
  Pigweed plant response rating: 100
[10]; 13 to 15 days
  Plant response rating, Pigweed: 100
[10]; [18]
  Pigweed plant response rating: 100
[11]; [16]
  Soybean plant response rating: 5
[11]; [17]
  Soybean plant response rating: 5
[11]; 13 to 15 days
  Plant response rating, Soybean: 25
[11]; [18]
  Soybean plant response rating: 65
[12]; [16]
  Wheat plant response rating: 0
[12]; [17]
  Wheat plant response rating: 60
[12]; 13 to 15 days
  Plant response rating, Wheat: 85
[12]; [18]
  Wheat plant response rating: 90
[13]; [16]
  Velvetleaf plant response rating: 20
[13]; [17]
  Velvetleaf plant response rating: 65
[13]; 13 to 15 days
  Plant response rating, Velvetleaf: 100
[13]; [18]
  Velvetleaf plant response rating: 98
[14]; [16]
  Ryegrass, Italian plant response rating: 0
[14]; [17]
  Ryegrass, Italian plant response rating: 30
[14]; 13 to 15 days
  Plant response rating, Ryegrass, Italian: 90
[14]; [18]
  Ryegrass, Italian plant response rating: 90
[15]; [19]
  Crabgrass, Large plant response rating: 90
[15]; [20]
  Crabgrass, Large plant response rating: 80

## CCOc1cc(C(=O)NC(C)C)nn1Cc1ccnc(C(F)(F)F)c1 [Compound 188]
[1]; [16]
  Barnyardgrass plant response rating: 100
[1]; [17]
  Barnyardgrass plant response rating: 100
[1]; 13 to 15 days
  Plant response rating, Barnyardgrass: 100
[1]; [18]
  Barnyardgrass plant response rating: 100
[2]; [16]
  Galium plant response rating: 98
[2]; [17]
  Galium plant response rating: 100
[2]; 13 to 15 days
  Plant response rating, Galium: 100
[2]; [18]
  Galium plant response rating: 100
[3]; [16]
  Blackgrass plant response rating: 90
[3]; [17]
  Blackgrass plant response rating: 90
[3]; 13 to 15 days
  Plant response rating, Blackgrass: 90
[3]; [18]
  Blackgrass plant response rating: 90
[4]; [19]
  Corn plant response rating: 100
[4]; [20]
  Corn plant response rating: 90
[5]; [16]
  Corn plant response rating: 55
[5]; [17]
  Corn plant response rating: 85
[5]; 13 to 15 days
  Plant response rating, Corn: 98
[5]; [18]
  Corn plant response rating: 98
[6]; [16]
  Oilseed Rape plant response rating: 100
[6]; [17]
  Oilseed Rape plant response rating: 100
[6]; 13 to 15 days
  Plant response rating, Oilseed Rape: 100
[6]; [18]
  Oilseed Rape plant response rating: 100
[7]; [16]
  Johnsongrass plant response rating: 80
[7]; [17]
  Johnsongrass plant response rating: 98
[7]; 13 to 15 days
  Plant response rating, Johnsongrass: 100
[7]; [18]
  Johnsongrass plant response rating: 100
[8]; [21]
  Velvetleaf plant response rating: 100
[8]; [19]
  Velvetleaf plant response rating: 100
[9]
  Barnyardgrass plant response rating (0 to 100 scale, 0 is no effect, 100 is complete control): 100
  Barnyardgrass plant response rating: 100
[10]; [16]
  Pigweed plant response rating: 100
[10]; [17]
  Pigweed plant response rating: 100
[10]; 13 to 15 days
  Plant response rating, Pigweed: 100
[10]; [18]
  Pigweed plant response rating: 100
[11]; [16]
  Soybean plant response rating: 90
[11]; [17]
  Soybean plant response rating: 90
[11]; 13 to 15 days
  Plant response rating, Soybean: 95
[11]; [18]
  Soybean plant response rating: 98
[12]; [16]
  Wheat plant response rating: 85
[12]; [17]
  Wheat plant response rating: 90
[12]; 13 to 15 days
  Plant response rating, Wheat: 90
[12]; [18]
  Wheat plant response rating: 90
[13]; [16]
  Velvetleaf plant response rating: 100
[13]; [17]
  Velvetleaf plant response rating: 100
[13]; 13 to 15 days
  Plant response rating, Velvetleaf: 100
[13]; [18]
  Velvetleaf plant response rating: 100
[14]; [16]
  Ryegrass, Italian plant response rating: 70
[14]; [17]
  Ryegrass, Italian plant response rating: 90
[14]; 13 to 15 days
  Plant response rating, Ryegrass, Italian: 90
[14]; [18]
  Ryegrass, Italian plant response rating: 90
[15]; [19]
  Crabgrass, Large plant response rating: 90
[15]; [20]
  Crabgrass, Large plant response rating: 90
